Laboratory results taken from ChEMBL document CHEMBL4130348, “Structure-activity relationship investigation for benzonaphthyridinone derivatives as novel potent Bruton's tyrosine kinase (BTK) irreversible inhibitors” (Eur J Med Chem, 2017).

Columns and labels:
[1] = target: T1, Tyrosine-protein kinase JAK3 (Homo sapiens, UniProt P52333); assay: Inhibition of recombinant GST-tagged human JAK3 expressed in baculovirus expression system using poly (4:1 Glu, Tyr) as substrate preincubated for 1 hr followed by substrate addition measured after 1 hr by ADP-glo assay
T1 sequence (P52333 whole entry): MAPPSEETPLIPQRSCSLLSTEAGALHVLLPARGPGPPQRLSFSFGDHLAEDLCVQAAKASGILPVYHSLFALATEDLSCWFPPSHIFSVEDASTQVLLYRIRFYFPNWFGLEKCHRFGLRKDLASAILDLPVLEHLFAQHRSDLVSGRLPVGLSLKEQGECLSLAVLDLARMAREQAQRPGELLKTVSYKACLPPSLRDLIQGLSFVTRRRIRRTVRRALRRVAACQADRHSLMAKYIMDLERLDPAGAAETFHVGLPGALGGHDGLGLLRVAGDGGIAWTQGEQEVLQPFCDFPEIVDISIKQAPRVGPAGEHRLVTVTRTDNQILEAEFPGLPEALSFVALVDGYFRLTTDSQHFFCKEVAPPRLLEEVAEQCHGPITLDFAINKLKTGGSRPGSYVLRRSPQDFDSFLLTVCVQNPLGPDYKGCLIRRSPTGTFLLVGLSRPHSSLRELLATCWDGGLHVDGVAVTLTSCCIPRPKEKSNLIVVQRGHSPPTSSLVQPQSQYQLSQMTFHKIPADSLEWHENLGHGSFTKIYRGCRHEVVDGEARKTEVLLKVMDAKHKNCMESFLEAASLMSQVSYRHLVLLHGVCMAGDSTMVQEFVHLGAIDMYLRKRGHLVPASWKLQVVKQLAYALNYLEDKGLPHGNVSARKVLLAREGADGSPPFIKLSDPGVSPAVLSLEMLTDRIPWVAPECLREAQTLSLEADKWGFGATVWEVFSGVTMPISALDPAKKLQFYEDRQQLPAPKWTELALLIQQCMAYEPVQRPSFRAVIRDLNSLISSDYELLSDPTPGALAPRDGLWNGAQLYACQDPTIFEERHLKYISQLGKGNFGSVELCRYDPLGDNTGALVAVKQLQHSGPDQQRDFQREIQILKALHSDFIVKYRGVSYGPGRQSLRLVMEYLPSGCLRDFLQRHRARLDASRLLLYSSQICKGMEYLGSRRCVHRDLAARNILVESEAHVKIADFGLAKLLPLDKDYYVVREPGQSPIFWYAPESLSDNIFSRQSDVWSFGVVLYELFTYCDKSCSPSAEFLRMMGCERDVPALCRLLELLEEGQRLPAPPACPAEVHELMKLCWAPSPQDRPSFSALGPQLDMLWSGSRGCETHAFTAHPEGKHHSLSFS

[2] = Antiproliferative activity against mouse BA/F3 cells after 72 hrs by CellTiter-Glo assay; assay type: cell-based, BaF3
[3] = target: Epidermal growth factor receptor (Homo sapiens) (UniProt P00533); assay: Inhibition of TEL-fused EGFR (unknown origin) expressed in mouse BA/F3 cells after 72 hrs by CellTiter-Glo assay; assay type: cell-based
[4] = target: Tyrosine-protein kinase JAK1 (Homo sapiens) (UniProt P23458); assay: Inhibition of TEL-fused JAK1 (unknown origin) expressed in mouse BA/F3 cells after 72 hrs by CellTiter-Glo assay; assay type: cell-based
[5] = target: Tyrosine-protein kinase JAK2 (Homo sapiens) (UniProt O60674); assay: Inhibition of TEL-fused JAK2 (unknown origin) expressed in mouse BA/F3 cells after 72 hrs by CellTiter-Glo assay; assay type: cell-based
HCT-116 = assay: Antiproliferative activity against human HCT116 cells after 72 hrs by CellTiter-Glo assay; assay type: functional; details: HCT-116, 72 h
A-431 = assay: Antiproliferative activity against human A431 cells after 72 hrs by CellTiter-Glo assay; assay type: functional; details: A-431, 72 h
NCI-H460 = assay: Antiproliferative activity against human NCI-H460 cells after 72 hrs by CellTiter-Glo assay; assay type: functional; details: NCI-H460, 72 h
NCI-H358 = assay: Antiproliferative activity against human NCI-H358 cells after 72 hrs by CellTiter-Glo assay; assay type: functional; details: NCI-H358, 72 h
NCI-H1975 = assay: Antiproliferative activity against human NCI-H1975 cells after 72 hrs by CellTiter-Glo assay; assay type: functional; details: NCI-H1975, 72 h
HeLa = assay: Antiproliferative activity against human HeLa cells after 72 hrs by CellTiter-Glo assay; assay type: functional
[6] = Antiproliferative activity against human RV1 cells after 72 hrs by CellTiter-Glo assay; assay type: functional; details: RV-1, 72 h
SU-DHL-2 = assay: Antiproliferative activity against human SUDHL2 cells after 72 hrs by CellTiter-Glo assay; assay type: functional; details: SU-DHL-2, 72 h
U2932 = assay: Antiproliferative activity against human U2932 cells after 72 hrs by CellTiter-Glo assay; assay type: functional; details: U2932, 72 h
Pfeiffer = assay: Antiproliferative activity against human Pfeiffer cells after 72 hrs by CellTiter-Glo assay; assay type: functional
Ramos = assay: Antiproliferative activity against human Ramos cells after 72 hrs by CellTiter-Glo assay; assay type: functional
MOLM-13 = assay: Antiproliferative activity against human MOLM13 cells after 72 hrs by CellTiter-Glo assay; assay type: functional; details: MOLM-13, 72 h
[7] = Antiproliferative activity against human MOLM16 cells after 72 hrs by CellTiter-Glo assay; assay type: functional; details: MOLM16, 72 h
HEL = assay: Antiproliferative activity against human HEL cells after 72 hrs by CellTiter-Glo assay; assay type: functional
SKM-1 = assay: Antiproliferative activity against human SKM1 cells after 72 hrs by CellTiter-Glo assay; assay type: functional; details: SKM-1, 72 h
NB-4 = assay: Antiproliferative activity against human NB4 cells after 72 hrs by CellTiter-Glo assay; assay type: functional; details: NB-4, 72 h
HL-60 = assay: Antiproliferative activity against human HL60 cells after 72 hrs by CellTiter-Glo assay; assay type: functional; details: HL-60, 72 h
OCI-AML-3 = assay: Antiproliferative activity against human OCI-AML3 cells after 72 hrs by CellTiter-Glo assay; assay type: functional; details: OCI-AML-3, 72 h
K562 = assay: Antiproliferative activity against human K562 cells after 72 hrs by CellTiter-Glo assay; assay type: functional; details: K562, 72 h
Rec1 = assay: Antiproliferative activity against human Rec1 cells after 72 hrs by CellTiter-Glo assay; assay type: functional; details: Rec1, 72 h
Z-138 = assay: Antiproliferative activity against human Z138 cells after 72 hrs by CellTiter-Glo assay; assay type: functional; details: Z-138, 72 h
cells [8] = assay type: functional; details: Homo sapiens, CLL cell, 72 h
cells [9] = assay type: functional; details: Homo sapiens, CLL cell, 72 h; remark: listed apart in the source
[10] = target: Cytoplasmic tyrosine-protein kinase BMX (Homo sapiens) (UniProt P51813)
Description: Inhibition of TEL-fused BMX (unknown origin) expressed in mouse BA/F3 cells after 72 hrs by CellTiter-Glo assay

[11] = test system: Tyrosine-protein kinase JAK3; assay: Inhibition of TEL-fused JAK3 (unknown origin) expressed in mouse BA/F3 cells after 72 hrs by CellTiter-Glo assay; details: Homo sapiens

Chain of Epidermal growth factor receptor (Homo sapiens) (P00533 whole entry, the tested form may be a part): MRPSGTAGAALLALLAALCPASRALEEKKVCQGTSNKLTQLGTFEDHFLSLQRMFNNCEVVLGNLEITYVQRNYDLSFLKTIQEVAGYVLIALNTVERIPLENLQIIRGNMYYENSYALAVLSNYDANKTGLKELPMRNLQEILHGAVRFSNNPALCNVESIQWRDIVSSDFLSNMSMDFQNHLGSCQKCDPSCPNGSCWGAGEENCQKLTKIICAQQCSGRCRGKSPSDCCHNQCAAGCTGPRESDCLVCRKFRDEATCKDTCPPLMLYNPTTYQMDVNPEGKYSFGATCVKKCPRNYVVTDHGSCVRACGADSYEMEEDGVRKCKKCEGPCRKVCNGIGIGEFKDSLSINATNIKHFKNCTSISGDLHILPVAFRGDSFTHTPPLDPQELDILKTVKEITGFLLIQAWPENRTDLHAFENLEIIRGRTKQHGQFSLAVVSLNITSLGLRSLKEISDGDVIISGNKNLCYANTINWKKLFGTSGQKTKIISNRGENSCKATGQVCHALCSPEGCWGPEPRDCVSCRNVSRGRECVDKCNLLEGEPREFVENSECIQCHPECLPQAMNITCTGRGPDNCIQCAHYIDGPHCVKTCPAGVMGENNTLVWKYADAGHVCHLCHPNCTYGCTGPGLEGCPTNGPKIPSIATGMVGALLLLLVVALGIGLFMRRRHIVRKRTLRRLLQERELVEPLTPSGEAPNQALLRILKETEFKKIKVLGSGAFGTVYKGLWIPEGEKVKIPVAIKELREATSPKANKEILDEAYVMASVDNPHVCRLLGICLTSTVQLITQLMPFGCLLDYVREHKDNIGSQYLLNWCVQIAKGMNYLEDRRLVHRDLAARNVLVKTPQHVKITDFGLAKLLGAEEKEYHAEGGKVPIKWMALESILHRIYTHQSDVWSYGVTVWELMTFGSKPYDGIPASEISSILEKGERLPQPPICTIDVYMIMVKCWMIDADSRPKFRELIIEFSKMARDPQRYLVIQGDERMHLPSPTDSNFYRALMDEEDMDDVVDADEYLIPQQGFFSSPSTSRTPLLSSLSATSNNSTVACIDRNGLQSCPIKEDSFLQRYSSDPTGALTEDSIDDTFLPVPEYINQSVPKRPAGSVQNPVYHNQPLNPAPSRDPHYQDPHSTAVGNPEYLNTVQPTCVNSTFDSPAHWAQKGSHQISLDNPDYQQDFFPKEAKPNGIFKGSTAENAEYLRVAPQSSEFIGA
Chain of Tyrosine-protein kinase JAK1 (Homo sapiens) (P23458 whole entry, the tested form may be a part): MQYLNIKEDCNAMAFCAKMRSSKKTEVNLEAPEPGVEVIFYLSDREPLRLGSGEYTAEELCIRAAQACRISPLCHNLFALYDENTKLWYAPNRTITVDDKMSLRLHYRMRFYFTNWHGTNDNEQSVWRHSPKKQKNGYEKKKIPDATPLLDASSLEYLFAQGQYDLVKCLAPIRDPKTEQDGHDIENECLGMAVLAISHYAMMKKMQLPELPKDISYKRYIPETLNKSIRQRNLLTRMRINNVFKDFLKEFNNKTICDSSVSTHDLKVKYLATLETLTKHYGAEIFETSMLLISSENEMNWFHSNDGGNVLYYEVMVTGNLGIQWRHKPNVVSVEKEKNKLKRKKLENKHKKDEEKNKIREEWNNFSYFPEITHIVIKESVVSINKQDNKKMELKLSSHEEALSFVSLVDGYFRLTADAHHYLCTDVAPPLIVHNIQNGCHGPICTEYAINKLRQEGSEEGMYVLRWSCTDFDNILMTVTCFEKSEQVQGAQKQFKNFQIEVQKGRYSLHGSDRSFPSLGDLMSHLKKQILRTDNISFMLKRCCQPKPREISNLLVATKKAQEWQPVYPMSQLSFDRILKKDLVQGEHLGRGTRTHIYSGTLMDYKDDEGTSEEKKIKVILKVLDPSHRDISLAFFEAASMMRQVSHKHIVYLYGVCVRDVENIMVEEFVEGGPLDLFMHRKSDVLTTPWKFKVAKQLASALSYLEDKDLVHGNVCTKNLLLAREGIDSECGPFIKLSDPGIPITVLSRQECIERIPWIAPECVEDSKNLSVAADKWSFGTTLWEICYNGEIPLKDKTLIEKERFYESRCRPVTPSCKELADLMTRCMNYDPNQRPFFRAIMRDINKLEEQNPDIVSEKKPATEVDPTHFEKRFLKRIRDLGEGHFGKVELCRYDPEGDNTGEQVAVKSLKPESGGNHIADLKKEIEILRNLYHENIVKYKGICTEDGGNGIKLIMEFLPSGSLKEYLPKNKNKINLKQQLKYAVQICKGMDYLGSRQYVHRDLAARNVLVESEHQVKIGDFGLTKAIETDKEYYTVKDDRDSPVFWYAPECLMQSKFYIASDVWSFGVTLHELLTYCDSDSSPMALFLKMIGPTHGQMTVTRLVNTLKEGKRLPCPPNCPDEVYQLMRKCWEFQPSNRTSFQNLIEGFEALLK
Chain of Tyrosine-protein kinase JAK2 (Homo sapiens) (O60674 whole entry, the tested form may be a part): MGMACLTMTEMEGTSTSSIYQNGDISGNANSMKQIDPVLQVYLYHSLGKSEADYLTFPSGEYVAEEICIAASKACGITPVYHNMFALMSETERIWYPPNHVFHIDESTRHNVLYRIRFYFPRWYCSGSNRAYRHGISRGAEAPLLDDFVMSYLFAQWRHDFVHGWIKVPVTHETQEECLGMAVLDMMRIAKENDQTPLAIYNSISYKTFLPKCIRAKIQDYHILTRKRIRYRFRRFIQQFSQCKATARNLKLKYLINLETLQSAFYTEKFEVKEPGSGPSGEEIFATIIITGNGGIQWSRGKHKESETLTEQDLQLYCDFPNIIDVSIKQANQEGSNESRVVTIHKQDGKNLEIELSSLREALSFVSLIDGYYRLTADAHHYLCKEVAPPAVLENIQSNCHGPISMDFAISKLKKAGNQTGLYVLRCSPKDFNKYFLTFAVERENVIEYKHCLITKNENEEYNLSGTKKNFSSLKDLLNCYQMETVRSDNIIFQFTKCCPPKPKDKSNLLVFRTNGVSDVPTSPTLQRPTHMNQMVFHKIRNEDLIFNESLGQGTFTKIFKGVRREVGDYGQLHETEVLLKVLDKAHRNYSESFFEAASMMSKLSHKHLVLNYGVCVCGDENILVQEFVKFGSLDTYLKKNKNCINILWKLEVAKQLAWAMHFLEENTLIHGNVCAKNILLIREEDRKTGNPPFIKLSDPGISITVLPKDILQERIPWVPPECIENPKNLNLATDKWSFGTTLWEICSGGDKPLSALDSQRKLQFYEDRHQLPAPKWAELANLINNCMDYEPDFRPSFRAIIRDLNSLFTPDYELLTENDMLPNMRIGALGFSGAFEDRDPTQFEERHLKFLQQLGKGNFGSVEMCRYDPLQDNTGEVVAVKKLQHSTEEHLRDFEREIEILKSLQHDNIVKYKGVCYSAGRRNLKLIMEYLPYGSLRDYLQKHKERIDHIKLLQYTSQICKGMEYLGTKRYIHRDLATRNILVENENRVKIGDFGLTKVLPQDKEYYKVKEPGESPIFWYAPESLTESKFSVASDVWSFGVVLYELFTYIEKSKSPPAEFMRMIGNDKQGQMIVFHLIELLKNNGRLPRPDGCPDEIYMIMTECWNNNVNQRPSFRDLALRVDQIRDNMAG
Chain of Cytoplasmic tyrosine-protein kinase BMX (Homo sapiens) (P51813 whole entry, the tested form may be a part): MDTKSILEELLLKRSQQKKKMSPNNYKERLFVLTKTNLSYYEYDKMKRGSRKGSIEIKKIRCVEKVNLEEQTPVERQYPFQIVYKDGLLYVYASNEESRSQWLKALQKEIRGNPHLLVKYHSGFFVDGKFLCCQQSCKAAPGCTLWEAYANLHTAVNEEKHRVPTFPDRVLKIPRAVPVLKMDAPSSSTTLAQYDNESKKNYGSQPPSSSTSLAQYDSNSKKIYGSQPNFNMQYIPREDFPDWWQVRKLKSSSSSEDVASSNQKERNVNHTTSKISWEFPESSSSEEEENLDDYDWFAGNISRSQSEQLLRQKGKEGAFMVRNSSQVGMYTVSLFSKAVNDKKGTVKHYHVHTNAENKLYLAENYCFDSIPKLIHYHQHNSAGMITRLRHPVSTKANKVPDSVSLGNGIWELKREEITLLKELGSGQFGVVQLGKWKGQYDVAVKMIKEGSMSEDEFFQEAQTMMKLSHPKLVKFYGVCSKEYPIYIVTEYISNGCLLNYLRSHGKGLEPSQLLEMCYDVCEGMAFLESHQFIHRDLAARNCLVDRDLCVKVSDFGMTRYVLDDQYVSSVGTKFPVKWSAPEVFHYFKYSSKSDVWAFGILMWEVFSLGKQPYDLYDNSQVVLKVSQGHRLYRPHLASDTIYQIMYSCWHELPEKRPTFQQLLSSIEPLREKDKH

Structure (SMILES): CCC(=O)Nc1cc(-n2c(=O)ccc3cnc4ccc(-n5cccn5)cc4c32)ccc1C
- IC50 [1]: > 10 µM
- GI50 at 72 h [2]: > 10 µM
- GI50 [3]: > 10 µM
- GI50 [4]: > 10 µM
- GI50 [5]: > 10 µM
- GI50 (HCT-116): > 10 µM
- GI50 (A-431): > 10 µM
- GI50 (NCI-H460): > 10 µM
- GI50 (NCI-H358): > 10 µM
- GI50 (NCI-H1975): > 10 µM
- GI50 (HeLa): > 10 µM
- GI50 [6]: > 10 µM
- GI50 (SU-DHL-2): > 10 µM
- GI50 (U2932): > 10 µM
- GI50 (Pfeiffer): > 10 µM
- GI50 (Ramos): > 10 µM
- GI50 (MOLM-13): > 10 µM
- GI50 [7]: > 10 µM
- GI50 (HEL): > 10 µM
- GI50 (SKM-1): > 10 µM
- GI50 (NB-4): > 10 µM
- GI50 (HL-60): > 10 µM
- GI50 (OCI-AML-3): > 10 µM
- GI50 (K562): > 10 µM
- GI50 (Rec1): > 10 µM
- GI50 (Z-138): > 10 µM
- GI50 (cells [8]): > 10 µM
- GI50 (cells [9]): > 10 µM
- GI50 [10]: > 10 µM
- GI50 [11]: > 10 µM

Structure (SMILES): C=CC(=O)Nc1cc(-n2c(=O)ccc3cnc4ccc(-n5cccn5)cc4c32)ccc1C
- IC50 [1]: > 10 µM
- GI50 at 72 h [2]: > 10 µM
- GI50 [3]: 2.66 µM
- GI50 [4]: 2.67 µM
- GI50 [5]: 2.1 µM
- GI50 (HCT-116): > 10 µM
- GI50 (A-431): 5.1 µM
- GI50 (NCI-H460): > 10 µM
- GI50 (NCI-H358): > 10 µM
- GI50 (NCI-H1975): 5.57 µM
- GI50 (HeLa): > 10 µM
- GI50 [6]: > 10 µM
- GI50 (SU-DHL-2): > 10 µM
- GI50 (U2932): 7.9 µM
- GI50 (Pfeiffer): 5.8 µM
- GI50 (Ramos): 3.5 µM
- GI50 (MOLM-13): 0.59 µM
- GI50 [7]: 1.4 µM
- GI50 (HEL): 1.8 µM
- GI50 (SKM-1): 2.5 µM
- GI50 (NB-4): 3.7 µM
- GI50 (HL-60): 3.8 µM
- GI50 (OCI-AML-3): 5.6 µM
- GI50 (K562): > 10 µM
- GI50 (Rec1): 1.6 µM
- GI50 (Z-138): 8.5 µM
- GI50 (cells [8]): 3.7 µM
- GI50 (cells [9]): 2.4 µM
- GI50 [10]: 0.018 µM
- GI50 [11]: 9.67 µM
